Test results taken from patent US20040175368A1 (Wisconsin Alumni Research Foundation, priority 2001, published 2004).

Assays:
[1] = Photobleaching quantum efficiency of TAM+ dyes noncovalently bound to BSA (532-nm laser photolysis); assay type: physicochemical
Procedure: Spectrophotometric studies were performed with a Shimadzu UV-2101PC spectrophotometer. 1-Octanol/water partition coefficients^18 (P), were determined at 25° C. using equal volumes of water and 1-octanol. Typically, five distinct solutions of each dye in the concentration range between 1 μM and 10 μM were prepared in deionized water and subsequently equilibrated with 1-octanol. After the equilibrium was reached, the final dye concentrations in the aqueous and/or organic phases were determined by absorption spectroscopy. For the measurement of photobleaching quantum efficiencies, the samples were placed in standard 10-mm (optical path) quartz cells at a distance of approximately 10 cm from the light source and photolyzed using the 532-nm line of an Nd:YAG laser model 7010 from Continuum operating at a repetition rate of 10 Hz. The defocused laser beam (circular profile with a diameter of about 5 mm) was directed to the center of the quartz cell. The absolute photolysis energy (or the number of 532-nm photons per laser pulse) was kept constant over the course of any specific experiment. The temperature-controlled cell holder allowed continuous magnetic stirring of the samples during photolysis. The photobleaching quantum efficiencies were based on the photobleaching efficiency of a classical chemical actinometer, potassium ferrioxalate, ^19,20 and determined considering only the first 5 to 10% decrease in dye concentration. The photolysis energy was adjusted to appropriate levels with the use of a calibrated solid-state joulemeter model PM30VI from Molectron.
To explore how the photoreactivity of the TAM^+dyes in complex biologic environments correlates with the observed phototoxic effects toward tumor and normal cells, the photo-bleaching efficiency of TAM^+dyes noncovalently bound to a model biologic host (bovine serum albumin, BSA) was measured. For the case of CFU-GM cells, the efficacy of photoinduced cell destruction mediated by TAM^+dyes precisely paralleled the photochemical reactivity of these photosensitizers. Both, phototoxicity (FIG. 3, lower panel) and photoreactivity (Table 1) followed the decreasing order EV^+>VPBBO^+>CV^+>VBR^+.

[2] = test system: murine CFU-GM cells; assay: Dye-sensitized photoinactivation of normal hematopoietic CFU-GM cells, in vitro clonal assay; assay type: cell-based; settings: 1.0×10^−6 M dye, 12% FBS, light up to 90 min (FIG. 3 lower panel)
[3] = test system: L1210 cells; assay: Uptake of dye by L1210 cells; assay type: cell-based, murine; settings: for Dye Uptake by L1210 Cells: 1 hour at 37° C. in the dark, 12% FBS
Procedure: L1210 cells were suspended at a concentration of 1.0×10^6 cells/mL in HEPES-buffered (10 mM, pH 7.4) alpha-medium supplemented with FBS (12%), and the TAM^+dyes were added from 1.0×10^−4M stock solutions in 50% ethanol to final concentrations of […]. The cells were subsequently incubated in the dark for 1 hour at 37° C., pelleted, washed with dye-free medium, and extracted with ethanol (1 mL per […]). The dye content of each extract was determined spectrophotometrically using calibration curves assembled using suitable dilutions of authentic dye in ethanol extracts of cells that had been incubated in dye-free medium.

[4] = test system: RBL cells; assay: Two-photon laser scanning microscopy of intracellular dye distribution; assay type: cell-based, rat; settings: 0.2 μM dye; for intracellular distribution of dye fluorescence: 10 minutes incubation
Procedure: RBL cells were incubated in the dark at a concentration of 1.1×10^5 cells/mL for periods ranging from 1 minute to 1 hour with fresh growth media containing 0.2 μM CV^+or Ev^+and subsequently incubated for 30 minutes in the dark with fresh growth media containing 0.05 μM Rh123; After a final cycle of washing and incubation for 15 minutes in fresh growth media, the media were replaced by modified Tyrode's solution containing 5 mM glucose and bovine serum albumin, and the cells were subjected to two-photon imaging. The examination of TAM^+accumulation into mitochondria was carried out through the comparison of the spatial distribution of the fluorescence of these dyes in the cellular environment with that of Rh123 (a classical mitochondrial marker^1,3) and the endogenous NAD(P)H. Fluorescence distributions within living RBL cells were obtained with a laser scanning multiphoton microscope (Bio-Rad MP1024). […] Three external detectors located in the Fourier plane of the microscope and equipped with appropriate sets of longpass dichroic and bandpass filters (from Chroma) were used for the simultaneous detection of two-photon excited fluorescence of NAD(P)H (400-500 nm), Rh123 (520-550 nm), and CV^+or EV^+(600-660 nm). To obtain sufficient fluorescence from CV^+,EV^+, and cellular NAD(P)H autofluorescence (all inefficient fluorophores), average excitation powers of approximately 18 mW were required. […]
Two-photon laser scanning microscopy^22,28 was used to obtain information on intracellular distribution and mitochondrial accumulation of CV^+and EV^+in RBL cells. […] Simultaneous two-photon images of NAD(P)H, Rh123, and TAM^+fluorescence were obtained by exciting RBL cells at 750 nm with a Ti:Sapphire laser (75 fs, 80 MHz, 18 mW) as the excitation source. No morphologic alterations or induction of fluorescence attributed to cellular photodamage was observed during the brief imaging period (approximately 3 seconds), and the bleaching of the three fluorophores was also negligible during this period. […]

Structure (SMILES) | quantum efficiency of photobleaching, nitrogen-purged relative to air-equilibrated samples ([1]; BSA-bound) | photobleaching efficiency of dimer relative to monomer ([1]; BSA-bound, air-equilibrated) | photobleaching efficiency of BSA-bound dimer ([1]; air-equilibrated samples, dimer) | photobleaching efficiency of BSA-bound monomer ([1]; air-equilibrated samples, monomer) | phototoxicity toward normal hematopoietic CFU-GM cells (in words) [2] | Dye Uptake by L1210 Cells [3] [molecules/cell] | relative efficiency of uptake by L1210 cells (in words) ([3]; among the TAM+ dyes tested) | intracellular distribution of dye fluorescence [4] | effect on mitochondria after prolonged incubation ([4]; 1 hour incubation, then 0.05 μM Rh123) | phototoxicity toward normal hematopoietic CFU-GM cells (in words) ([2]; listed as VPBBO+)
CN(C)c1ccc(C(=C2C=CC(=[N+](C)C)C=C2)c2ccc(N(C)C)cc2)cc1 [CV^+, crystal violet] | twofold higher | eightfold higher | 1.1×10^−4 | 1.3×10^−5 | comparatively small toxic effects | 2.14e+08 | most efficiently taken up by L1210 cells | consistent with mitochondrial localization | mitochondrial inner membrane potential has been reduced | –
CCN(CC)c1ccc(C(=C2C=CC(=[N+](CC)CC)C=C2)c2ccc(N(CC)CC)cc2)cc1 [EV^+, ethyl violet] | – | – | – | – | phototoxic toward both cell lines | 1.76e+08 | – | also accumulates into cell mitochondria | – | –
CCN=C1C=CC(=C(c2ccc(N(C)C)cc2)c2ccc(N(C)C)cc2)c2ccccc21.Cl [VBR^+, victoria blue R] | – | – | – | – | lowest efficacy | 8.8e+07 | – | – | – | –
CCN=C1C=CC(=C(c2ccc(N(CC)CC)cc2)c2ccc(N(CC)CC)cc2)c2ccccc21.Cl [VPBBO^+, victoria pure blue BO] | – | – | – | – | considerably more efficient in inactivating normal hematopoietic cells | 1.16e+08 | – | – | – | intermediate efficacy
